Laboratory results taken from patent publication US10307410B2, “Mcl-1 modulating compounds for cancer treatment” (CENTRE REGIONAL DE LUTTE CONTRE LE CANCER FRANCOIS BACLESSE, priority 2014, dated 2019).

Tests used:
Format in all cases: cell-based
[1] = test system: IGROV1-R10 ovarian cancer cells; experiment: PARP and caspase 3 cleavage by western blot; parameters: key to PARP cleavage: +: a little band corresponding to the 85 kDa cleaved form of PARP is observable on the western blot; ++: a band corresponding to the 85 kDa cleaved form of PARP is clearly observable on the western blot; +++: PARP in nearly completely cleaved; conditions: Molecule + Bcl-xL targeting siRNA
Procedure: (§1) Exponentially growing cells were transfected by siRNA as described below, and after 48 h, cells were continuously exposed to (Het)aromatic oligosystems (10, 25 or 50 μM) dissolved in DMSO (<0.1% of total volume) for 4 to 24 supplementary hours.
(§2) Cells were seeded in 25 cm^2 flasks the day before to reach 30-50% confluency at the time of transfection. The transfection INTERFERin™ reagent (Polyplus Transfection, Strasbourg. France) was added to siRNA diluted in Opti-MEM® reduced serum medium (Invitrogen, Cergy-Pontoise, France) and complexes formation was allowed to proceed for 15 min at RT before being applied to cells. The final siRNA concentration in the flasks was 20 nM.
Cells were rinsed with ice-cold PBS, suspended in a lysis buffer [RIPA:NaCl 150 mM, Tris (pH 8) 50 mM, Triton X100 1%, PMSF 4 mM, EDTA 5 mM, NaF 10 mM, NaPPi 10 mM, Na3OV4 1 mM, aprotinin 0.5 μl/ml and 4.6 ml ultra pure water] and incubated on ice for 30 minutes. Lysates were collected after centrifugation (13200 g, 10 min, 4° C.) and protein concentrations were determined using the Bradford assay (Bio-Rad, Hercules, USA). 20 μg of protein were separated by SDS-PAGE on a 4-12% gradient polyacrylamide gel (Invitrogen, Cergy-Pontoise, France) and transferred to Hybond-PVDF membranes (Amersham, Orsay, France). After blocking non-specific binding sites for 1 hour at RT by 5% (w/v) non-fat dry milk in TBS with 0.1% (v/v) Tween20 (T-TBS), the membranes were incubated overnight at 4° C. with the following rabbit monoclonal antibody: PARP, caspase-3 and Bcl-xL, Bim (Cell Signaling Technology, Ozyme, Saint-Quentin-en-Yvelines, France), Mcl-1 (Santa Cruz, Le Perray-en-Yvelines, France), HSP-70, Noxa (Calbiochem, Fontenay-sous-Bois, France), (Cell Signalling) and Actin (Sigma-Aldrich, Saint-Quentin Fallavier, France). Membranes were then washed with T-TBS and incubated for 1 hour with the appropriate horseradish peroxidase-conjugated anti-rabbit or anti-mouse (Amersham, Orsay, France) secondary antibodies. Revelation was done using a luminescent Image Analyzer (GE Healthcare, Orsay, France).

[2] = test system: IGROV1-R10 ovarian cancer cells; experiment: Nuclear morphology after DAPI staining; parameters: key to Apoptotic nuclear features: +: a few condensed or fragmented nuclei are observable after DAPI staining; ++: numerous condensed or fragmented nuclei are observable after DAPI staining (20-50%); +++: most of the nuclei are condensed or fragmented; conditions: Molecule + Bcl-xL targeting siRNA, DAPI staining
Procedure: as §1, §2
After treatment, both detached and adherent cells were pooled after trypsinization, applied to a polylysine-coated glass slide by cytocentrifugation and fixed with a solution of ethanol/chloroform/acetic acid (6:3:1). The preparations were then incubated for 15 min at room temperature with 1 μg/ml DAPI solution (Boehringer Mannheim-Roche, Mannheim, Germany), washed in distillated water, mounted under a coverslip in Mowiol (Calbiochem) and analyzed under a fluorescence microscope (BX51, Olympus, Rungis, France).
Cells were fixed with 2.5% glutaraldehyde in PBS buffer, included in agar, rinsed in Sorensen's buffer, post-fixed in osmium tetroxide 1% in Sorensen's buffer, deshydrated in ethanol and embedded in EPON resin. Ultrathin sections were cut and stained with uranyl acetate and lead citrate and examined using a JEOL1011 transmission electron microscope.

[3] = test system: IGROV1-R10 ovarian cancer cells; experiment: DNA content histograms (sub-G1) by flow cytometry; conditions: Molecule + Bcl-xL targeting siRNA
Procedure: as §1
as §2, with “The final siRNA concentration in the flasks was 20 nM.” left out
Adherent and floating cells were pooled, washed with 1×PBS and centrifuged at 200 g for 5 min before staining by Annexin V, propidium iodide or both, as recommended by the manufacturer (Roche Diagnostic, Indianapolis, USA). Briefly, 100 μl of Annexin V—Flit or propidium iodide or both were added on the cells pellet (10^6 cells) and incubated 15 minutes at room temperature in obscurity. 500 μl of sample buffer was then added on the suspensions that were thereafter analyzed using a Gallios flow cytometer (Beckman Coulter, Roissy, France) and cell cycle distribution was determined using Kaluza acquisition software (Beckman Coulter).

[4] = test system: IGROV1-R10 ovarian cancer cells; experiment: Cellular morphology / cell detachment, molecule alone or with Bcl-xL targeting siRNA; conditions: Molecule + Bcl-xL targeting siRNA
Procedure: as §1, §2

Which results are given for `Cc1cc(-c2ncc(-c3ccccc3)cc2/C=C/c2ccccc2)cnc1-c1ccccc1` [compound 30814, 3-methyl-2-phenyl-5-(5-phenyl-3-styrylpyridin-2-yl)pyridine]?
PARP cleavage [1]: +; Apoptotic nuclear features [2]: +; Sub-G1 (%) [3]: 37.2%

What does the source list for `COc1ccc(-c2cnc(-c3cnc(-c4ccc(OC)c(OC)c4)c(C)c3)c(/C=C/c3ccccc3)c2)cc1OC` [compound 30846, 2-(3,4-dimethoxyphenyl)-5-(5-(3,4-dimethoxyphenyl)-3-styrylpyridin-2-yl)-3-methylpyridine]?
Apoptotic nuclear features [2]: +; Sub-G1 (%) [3]: 33.1%

With `COc1cc(-c2cnc(-c3cnc(-c4cc(OC)c(OC)c(OC)c4)c(C)c3)c(/C=C/c3ccccc3)c2)cc(OC)c1OC` [compound 30847, 5-(3,4,5-trimethoxyphenyl)-2-(6-(3,4,5-trimethoxyphenyl)-5-methylpyridin-3-yl)-3-styrylpyridine] as the compound, how does the Cell detachment [4] read?
Its Cell detachment is “± (very few cells were detached from the support (less than 10%))”.

And the Apoptotic nuclear features [2]?
Its Apoptotic nuclear features is “+”.

What about the “Sub-G1 (%)” value [3] of the same compound?
Its value is 22%.

How did the Apoptotic nuclear features [2] turn out when `COc1ccc(-c2cnc(-c3cnc(-c4cc(OC)c(OC)c(OC)c4)c(C)c3)c(/C=C/c3ccccc3)c2)cc1OC` [compound 30849, 5-(3,4-dimethoxyphenyl)-2-(6-(3,4,5-trimethoxyphenyl)-5-methylpyridin-3-yl)-3-styrylpyridine] was run?
The Apoptotic nuclear features was “+”.

And the “Sub-G1 (%)” value [3]?
Its value is 19.9%.

With `COc1ccc(-c2ncc(-c3ncc(-c4cc(OC)c(OC)c(OC)c4)cc3/C=C/c3ccccc3)cc2C)cc1OC` [compound 30850, 5-(3,4,5-trimethoxyphenyl)-2-(6-(3,4-dimethoxyphenyl)-5-methylpyridin-3-yl)-3-styrylpyridine] as the compound, how does the Apoptotic nuclear features [2] read?
Its Apoptotic nuclear features is “+”.

What about the “Sub-G1 (%)” value [3] of the same compound?
The value was 20.2%.

Which results are given for `Cc1cc(-c2ncc(-c3ccc(C#N)cc3)cc2/C=C/c2ccccc2)cnc1-c1ccc(C#N)cc1` [compound 30854, 3-methyl-2-(4-cyanophenyl)-5-(5-(4-cyanophenyl)-3-styrylpyridin-2-yl)pyridine]?
Cell detachment [4]: ± (very few cells were detached from the support (less than 10%)); Apoptotic nuclear features [2]: +; Sub-G1 (%) [3]: 24.3%

What does the source list for `Cc1cc(-c2ncc(-c3sccc3C)cc2/C=C/c2ccccc2)cnc1-c1sccc1C` [compound 31336, 3-methyl-2-(3-methylthiophen-2-yl)-5-(5-(3-methylthiophen-2-yl)-3-(E)-styrylpyridin-2-yl)pyridine]?
Apoptotic nuclear features [2]: ++ (numerous condensed or fragmented nuclei are observable after DAPI staining (20-50%)); Sub-G1 (%) [3]: 48.8%

How did the PARP cleavage [1] turn out when `Cc1cc(-c2ncc(-c3ccccc3)cc2/C=C/c2ccccc2)cnc1-c1cccnc1` [compound 31348, 3-methyl-5-(5-phenyl-3-styrylpyridin-2-yl)-2-(pyridin-3-yl)pyridine] was run?
Its PARP cleavage is “+++”.

And the Apoptotic nuclear features [2]?
Its Apoptotic nuclear features is “+++”.

What about the “Sub-G1 (%)” value [3] of the same compound?
Its value is 58.8%.

For `Cc1cc(-c2ncc(-c3cccnc3)cc2/C=C/c2ccccc2)cnc1-c1ccccc1` [compound 31349, 3-(6-(5-methyl-6-phenylpyridin-3-yl)-5-styrylpyridin-3-yl)pyridine], which PARP cleavage [1] is on record?
The PARP cleavage was “+++”.

And the Apoptotic nuclear features [2]?
Its Apoptotic nuclear features is “+++”.

And the “Sub-G1 (%)” value [3]?
Its value is 59.2%.

With `Cc1cc(-c2ncc(-c3cnc(Cl)n3C)cc2/C=C/c2ccccc2)cnc1-c1cnc(Cl)n1C` [compound 31351, 5-(2-chloro-1-methyl-1H-imidazol-5-yl)-2-(6-(2-chloro-1-methyl-1H-imidazol-5-yl)-5-methylpyridin-3-yl)-3-styrylpyridine] as the compound, how does the Apoptotic nuclear features [2] read?
The Apoptotic nuclear features was “+++”.

And the “Sub-G1 (%)” value [3]?
Its value is 56.7%.

For `Cc1cc(-c2ncc(-c3cncnc3)cc2/C=C/c2ccccc2)cnc1-c1cncnc1` [compound 31361, 5-(3-methyl-5-(5-(pyrimidin-5-yl)-3-styrylpyridin-2-yl)pyridin-2-yl)pyrimidine], which Apoptotic nuclear features [2] is on record?
Its Apoptotic nuclear features is “++ (numerous condensed or fragmented nuclei are observable after DAPI staining (20-50%))”.

What about the “Sub-G1 (%)” value [3] of the same compound?
The value was 35.2%.

Which results are given for `Cc1cc(-c2ncc(-c3ccn[nH]3)cc2/C=C/c2ccccc2)cnc1-c1ccn[nH]1` [compound 31363, 2-(5-methyl-6-(1H-pyrazol-5-yl)pyridin-3-yl)-5-(1H-pyrazol-5-yl)-3-styrylpyridine]?
Apoptotic nuclear features [2]: +++; Sub-G1 (%) [3]: 63.7%

For `Cc1cc(-c2ncc(-c3cccnc3)cc2/C=C/c2ccccc2)cnc1-c1cccc(O)c1` [compound 31364, 3-(3-methyl-5-(5-(pyridin-3-yl)-3-styrylpyridin-2-yl)pyridin-2-yl)phenol], which Apoptotic nuclear features [2] is on record?
The Apoptotic nuclear features was “++ (numerous condensed or fragmented nuclei are observable after DAPI staining (20-50%))”.

What about the “Sub-G1 (%)” value [3] of the same compound?
The value was 39.6%.

Which Apoptotic nuclear features [2] does the source give for `Cc1cc(-c2ncc(-c3cccnc3)cc2/C=C/c2ccccc2)cnc1-c1cccc(C/C(N)=N/O)c1` [compound 31367, (1Z)—N′-hydroxy-2-(3-(3-methyl-5-(5-(pyridin-3-yl)-3-styrylpyridin-2-yl)pyridin-2-yl)phenyl)acetamidine] here?
Its Apoptotic nuclear features is “+++”.

What about the “Sub-G1 (%)” value [3] of the same compound?
The value was 52.7%.
